Data reported in patent US20010011075A1, “5'-SUBSTITUTED-RIBOFURANOSYL BENZIMIDAZOLES AS ANTIVIRAL AGENTS” (priority 1999, published 2001).
Read-outs that look alike come from different tables or passages of the source.

What was measured:
[1] = tested on: HCMV; experiment: HCMV plaque (focus) reduction assay in HFF cells; type: cell-based, HCMV (Towne strain); conditions: for IC50: HCMV plaque assay, HFF cells, averages from two or more experiments, read-out: 50% Inhibitory Concentration, Antiviral Activity (plaque); for anti-HCMV activity (in words): Table 1
Description: (§1) A plaque purified isolate, Po, of the Towne strain of HCMV was used in all experiments and was a gift of Dr. Mark Stinski, University of Iowa. The KOS strain of HSV-1 was used and was provided by Dr. Sandra K. Weller, University of Connecticut. Stock preparations of HCMV and HSV-1 were prepared and titered as known to those of skill and the art and described in Turk, S. R. et al. (1987) Antimicrob. Agents Chemother. Vol. 31:544-550 and Shipman, C., Jr., et al. (1990) J. Virol. Methods Vol. 28:101-106, each incorporated herein by reference.
(§2) HCMV plaque reduction experiments were performed with monolayer cultures of HFF cells by a procedure similar to that referenced above for titration of the viruses and described in Devivar, R. V. et al. (1994) J. Med. Chem. Vol. 37:2942-2949. Activity of compounds against HSV-1 was evaluated using an ELISA assay.
The effect of compounds of the replication of HCMV was measured using a plaque (focus) reduction assay. For the former, HFF cells in 24-well culture dishes were infected with approximately 50 p.f.u. of HCMV per well using the procedures detailed above. Compounds dissolved in growth medium were added in four to six selected concentrations to duplicate wells following virus adsorption. Following incubation at 37° C. for 7 to 10 days, cell sheets were fixed, stained and microscopic plaques were enumerated as described above. Drug effects were calculated as a percentage of reduction in number of plaques in the presence of each drug concentration compared to the number observed in the absence of drug. DHPG (ganciclovir) was used as a positive control in all experiments.
(§3) Dose-response relationships can be used to compare drug effects. These are constructed by linearly regressing the percent inhibition of parameters derived in the preceding sections against log drug concentrations. The 50 inhibitory (I50) concentrations were calculated from the regression lines using the methods described by Goldstein. See Goldstein, A., Biostatistics: An Introductory Text, MacMillan, New York, pp. 156-161 (1964), incorporated herein by reference.
(§4) (2) A plaque assay was used to quantitate anti HCMV activity, an ELISA assay was used to quantitate activity against HSV-1. DHPG (ganciclovir) was used as a positive control for the HCMV assay.

[2] = tested on: HSV-1; experiment: HSV-1 ELISA assay; type: cell-based, HSV-1 (KOS strain); conditions: read-out: 50% Inhibitory Concentration, Antiviral Activity (ELISA)
Description: as §1, §2
ELISA techniques according to standard procedures were also used to determine activity against HSV-1. Drug effects were calculated as a percentage of the reduction in virus titers in the presence of each drug concentration compared to the titer obtained in the absence of drug. Ganciclovir was used as a positive control in all experiments.
as §3, §4

[3] = Visual cytotoxicity in stationary HFF cells at time of plaque enumeration; type: cell-based, human; conditions: human, stationary human foreskin fibroblasts (HFF cells); visual cytotoxicity on HFF cells at time of HCMV plaque enumeration; read-out: 50% Inhibitory Concentration, Cytotoxicity (HFF)
Description: (§5) KB cells (available from the American Type Culture Collection (ATCC) 12301 Parklawn Drive, […], Md. 20852 (ATCC CCL 17)), an established human cell line derived from an epidermal oral carcinoma, were grown in minimal essential medium (MEM) (Sigma) with Hanks salts (MEM(H)) supplemented with 5% fetal calf serum. Human foreskin fibroblasts (HFF cells) (provided by the University of Michigan Hospital) and African green monkey kidney cells (BSC-1) (ATTC CCL 26) cells were grown in MEM with Earl salts (MEM(E)) supplemented with 10% fetal bovine serum. Cells were passaged according to conventional procedures and as described in Shipman, C., Jr. et al. (1976) Antimicrob. Agents Chemother. Vol. 9:120 and incorporated herein by reference. Briefly, cells were passaged at 1:2 to 1:10 dilutions according to conventional procedures by using 0.05% trypsin plus 0.02% EDTA in a HEPES buffered salt solution. HFF cells were passaged only at 1:2 dilutions.
(§6) Two different methods were used to evaluate cytotoxicity of the compounds. First, cytotoxicity produced in stationary HFF cells was determined by microscopical examination of cells not affected by the virus used in the plaque assay. Second the effect of compounds on KB cells during two population doubling times was determined by crystal violet staining and spectrophotometric quantitation of dye eluted from stained cells. This method has been utilized for the analysis of ganciclovir and zidovudine (See Prichard, M. N. et al. Antiviral Res. (1991) Vol. 35:1060-1065).
(§7) (3) Visual cytotoxicity was scored on HFF cells at the time of HCMV plaque enumeration. Inhibition of KB cell growth was determined as described in the experimental. 3L was used as a positive control for the KB cytotoxicity assay.

[4] = Inhibition of KB cell growth (crystal violet staining); type: cell-based, human; conditions: human, KB cells (human epidermal oral carcinoma line); inhibition of KB cell growth; read-out: 50% Inhibitory Concentration, Cytotoxicity (KB)
Description: as §5, §6, §7

[5] = tested on: HFF cells; experiment: Visual cytotoxicity in stationary HFF cells at time of plaque enumeration; type: cell-based, human; conditions: visual cytotoxicity on HFF cells at time of HCMV plaque enumeration; read-out: 50% Inhibitory Concentration, Cytotoxicity (HFF)
Description: as §5, §6, §7

[6] = tested on: KB cells; experiment: Inhibition of KB cell growth (crystal violet staining); type: cell-based, human; conditions: for IC50: inhibition of KB cell growth, read-out: 50% Inhibitory Concentration, Cytotoxicity (KB)
Description: as §5, §6, §7

[7] = tested on: L1210 cells; experiment: Antiproliferative activity: growth of L1210 cells; type: cell-based, mouse; conditions: for IC50: concentration required to decrease final growth rate of L1210 cells to half of control rate, read-out: 50% Inhibitory Concentration, Antiproliferative Activity
Description: Antiproliferative activity was evaluated by measuring the effect of the compounds on the growth of L1210 cells, a mouse leukemia cell line which is generally available and can be obtained from Cancer Chemotherapy Center, Japanese Foundation for Cancer Research. Antiproliferative activity was measured using conventional procedures and as described in Wotring, L. L. and Townsend, L. B., (1979) Cancer Res. Vol. 39:3018-3023 and Cory, A. H. et al. (1991) Cancer Comm. Vol. 3:207-212, each incorporated herein by reference.
(8) The concentration required to decrease the final growth rate of L1210 cells to half of the control rate. All values are averages from two or more experiments.

[8] = Human alphaherpesvirus 1, averages from two or more experiments
[9] = averages from two or more experiments

IC50 ([1]; Human betaherpesvirus 5, HFF)	IC50 [2, 8]	melting point	SMILES	IC50 [3]	IC50 at 2 population doubling times [4]	anti-HCMV activity (in words) [1]	IC50 [1]	IC50 [2, 9]	IC50 [5]	cytotoxicity in growing KB cells (in words) [6]	IC50 [6]	IC50 [7]	antiproliferative effect in L1210 cells (in words) ([7]; statement in text on Table 2)
2760 nM	> 100 µM	–	OC[C@H]1O[C@@H](n2c(Cl)nc3cc(Cl)c(Cl)cc32)[C@H](O)[C@@H]1O [Compound 1, 2,5,6-trichloro-1-(β-D-ribofuranosyl)benzimidazole, reference compound]	238 µM	210 µM	–	–	–	–	–	–	–	–
2800 nM	> 100 µM	150 to 151 °C	COC[C@H]1O[C@@H](n2c(Cl)nc3cc(Cl)c(Cl)cc32)[C@H](OC(C)=O)[C@@H]1OC(C)=O [Compound 7a, 2,5,6-trichloro-1-(2′,3′-di-O-acetyl-5′-O-methyl-β-D-ribofuranosyl)benzimidazole]	26 µM	80 µM	–	–	–	–	–	–	–	–
4300 nM	> 100 µM	125 to 126 °C	CCOC[C@H]1O[C@@H](n2c(Cl)nc3cc(Cl)c(Cl)cc32)[C@H](OC(C)=O)[C@@H]1OC(C)=O [Compound 7b, 2,5,6-trichloro-1-(2′,3′-di-O-acetyl-5′-O-ethyl-β-D-ribofuranosyl)benzimidazole]	33 µM	60 µM	–	–	–	–	–	–	–	–
21000 nM	> 100 µM	143 to 144 °C	CCCCOC[C@H]1O[C@@H](n2c(Cl)nc3cc(Cl)c(Cl)cc32)[C@H](OC(C)=O)[C@@H]1OC(C)=O [Compound 7c, 2,5,6-trichloro-1-(2′,3′-di-O-acetyl-5′-O-butyl-β-D-ribofuranosyl)benzimidazole]	66 µM	> 100 µM	–	–	–	–	–	–	–	–
8000 nM	> 100 µM	98 to 100 °C	CCCCCCOC[C@H]1O[C@@H](n2c(Cl)nc3cc(Cl)c(Cl)cc32)[C@H](OC(C)=O)[C@@H]1OC(C)=O [Compound 7d, 2,5,6-trichloro-1-(2′,3′-di-O-acetyl-5′-O-hexyl-β-D-ribofuranosyl)benzimidazole]	32 µM	60 µM	decreased activity over the butyl compound (7c)	–	–	–	–	–	–	–
–	–	–	O[C@@H]1[C@H](O)[C@@H](CF)O[C@H]1n1c(Cl)nc2cc(Cl)c(Cl)cc21 [Compound 13a, 2,5,6-trichloro-1-(5′-deoxy-5′-fluoro-β-D-ribofuranosyl)benzimidazole]	–	–	–	500 nM	> 100 µM	32 µM	little or no cytoxicity	> 100 µM	> 100 µM	no antiproliferative effect
–	–	–	O[C@@H]1[C@H](O)[C@@H](CCl)O[C@H]1n1c(Cl)nc2cc(Cl)c(Cl)cc21 [Compound 13b, 2,5,6-trichloro-1-(5′-deoxy-5′-chloro-β-D-ribofuranosyl)benzimidazole]	–	–	–	1000 nM	> 100 µM	32 µM	–	90 µM	> 100 µM	–
–	–	–	[N-]=[N+]=NC[C@H]1O[C@@H](n2c(Cl)nc3cc(Cl)c(Cl)cc32)[C@H](O)[C@@H]1O [Compound 17a, 2,5,6-trichloro-1-(5′-deoxy-5′-azido-β-D-ribofuranosyl)benzimidazole]	–	–	–	1500 nM	> 100 µM	32 µM	–	70 µM	80 µM	–
–	–	–	CSC[C@H]1O[C@@H](n2c(Cl)nc3cc(Cl)c(Cl)cc32)[C@H](O)[C@@H]1O [Compound 17b, 2,5,6-trichloro-1-(5′-deoxy-5′-methylthio-β-D-ribofuranosyl)benzimidazole]	–	–	equally active as the 5′-O-ethyl derivative (8b)	4500 nM	> 100 µM	32 µM	–	> 100 µM	> 100 µM	–
–	3.5 µM	–	Nc1nc(O)c2ncn(COC(CO)CO)c2n1 [DHPG, ganciclovir, reference compound]	> 100 µM	> 100 µM	–	–	–	–	–	–	–	–
